Measured values taken from the supplement of paper PMC10307832.

What was measured:
Experiment in all cases: relative viability (nuclei count vs DMSO), 5 days (fraction); higher = more cells survive
[1] = compound: C1CN(CCN1)C2=CC=C(C=C2)C3=CN4C(=C(C=N4)C5=CC=NC6=CC=CC=C56)N=C3 [DM3189] + Cc1nc(NC(=O)N2CCC[C@H]2C(N)=O)sc1-c1ccnc(C(C)(C)C(F)(F)F)c1 [Alpelisib] (partner 2 µM)
Method in brief: (§1)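 Lung cancer cell lines were seeded in 1536-well plates and dosed by pin tool the next day, with either a single drug or a fixed anchor-drug dose combined with five library-drug doses (not always all listed) spaced in √10 steps. Five days later, one step fixed the cells and stained their nuclei (final 0.05% Triton X-100, 1% formaldehyde, 1 ug/ml Hoechst), and nuclei were counted on 4× images. Relative viability is the nuclei count in treated wells divided by the count in vehicle wells, and each value is the median of duplicate plates.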

[2] = compound: C1CN(CCN1)C2=CC=C(C=C2)C3=CN4C(=C(C=N4)C5=CC=NC6=CC=CC=C56)N=C3 [DM3189] + Nc1nc2[nH]cc(CCc3ccc(C(=O)N[C@@H](CCC(=O)O)C(=O)O)cc3)c2c(=O)[nH]1 [Pemetrexed] (partner 0.2 µM)
Method in brief: as §1

[3] = compound: C1CN(CCN1)C2=CC=C(C=C2)C3=CN4C(=C(C=N4)C5=CC=NC6=CC=CC=C56)N=C3 [DM3189] + Nc1ncn([C@H]2C[C@H](O)[C@@H](CO)O2)c(=O)n1 [Decitabine] (partner 2 µM)
Method in brief: as §1

[4] = compound: C1CN(CCN1)C2=CC=C(C=C2)C3=CN4C(=C(C=N4)C5=CC=NC6=CC=CC=C56)N=C3 [DM3189] + O=C(CCCCCCC(=O)Nc1ccccc1)NO [Vorinostat] (partner 1 µM)
Method in brief: as §1

[5] = compound: C1CN(CCN1)C2=CC=C(C=C2)C3=CN4C(=C(C=N4)C5=CC=NC6=CC=CC=C56)N=C3 [DM3189] + O=C(c1cc(Cc2n[nH]c(=O)c3ccccc23)ccc1F)N1CCN(C(=O)C2CC2)CC1 [Olaparib] (partner 8 µM)
Method in brief: as §1

Row | Cell Line | relative viability ([1]; first compound 0.08 µM) | relative viability ([1]; first compound 0.253 µM) | relative viability ([1]; first compound 2.53 µM) | relative viability ([2]; first compound 0.08 µM) | relative viability ([2]; first compound 0.253 µM) | relative viability ([2]; first compound 0.8 µM) | relative viability ([2]; first compound 2.53 µM) | relative viability ([3]; first compound 0.08 µM) | relative viability ([3]; first compound 0.253 µM) | relative viability ([3]; first compound 0.8 µM) | relative viability ([3]; first compound 2.53 µM) | relative viability ([4]; first compound 0.08 µM) | relative viability ([4]; first compound 0.253 µM) | relative viability ([4]; first compound 0.8 µM) | relative viability ([4]; first compound 2.53 µM) | relative viability ([5]; first compound 0.08 µM) | relative viability ([5]; first compound 0.253 µM) | relative viability ([5]; first compound 0.8 µM) | relative viability ([5]; first compound 2.53 µM) | relative viability ([1]; first compound 0.8 µM)
1 | NCI-H1944 | 0.884 | 0.817 | 0.806 | 0.661 | 0.603 | 0.603 | 0.675 | 0.42 | 0.467 | 0.384 | 0.455 | 0.592 | 0.567 | 0.467 | 0.565 | 0.385 | 0.405 | 0.35 | 0.378 | 
2 | LC-2-ad | 0.822 | 0.76 | 0.71 | 0.259 | 0.253 | 0.257 | 0.276 | 0.851 | 0.77 | 0.826 | 0.916 | 0.744 | 0.7 | 0.663 | 0.723 | 0.713 | 0.66 | 0.652 | 0.747 | 0.857
3 | NCI-H358 | 0.851 | 0.83 | 0.492 | 0.172 | 0.155 | 0.181 | 0.168 | 0.226 | 0.191 | 0.217 | 0.194 | 0.746 | 0.585 | 0.628 | 0.595 | 0.7 | 0.539 | 0.56 | 0.395 | 0.779
4 | NCI-H2170 | 0.96 | 0.854 | 0.641 | 0.282 | 0.276 | 0.373 | 0.248 | 0.494 | 0.484 | 0.466 | 0.44 | 0.921 | 0.811 | 0.725 | 0.658 | 0.607 | 0.69 | 0.534 | 0.469 | 0.734
5 | A-427 | 1.11 | 1.04 | 1.09 | 1.17 | 0.897 | 0.954 | 1 | 0.591 | 0.546 | 0.541 | 0.618 | 0.941 | 0.791 | 0.801 | 0.816 | 0.832 | 0.753 | 0.512 | 0.807 | 1.01
6 | NCI-H1666 | 1.04 | 1.17 | 0.793 | 1 | 0.818 | 0.844 |  | 0.882 | 0.688 | 0.748 | 0.83 | 1.04 | 1.02 | 1.09 |  | 0.714 | 0.682 | 0.691 |  | 1.07
7 | LOU-NH91 | 0.765 | 0.702 | 0.683 | 0.375 | 0.407 | 0.331 | 0.368 | 0.854 | 0.799 | 0.739 | 0.863 | 1.15 | 0.891 | 0.71 | 0.91 | 0.921 | 0.896 | 0.76 | 0.92 | 0.668
8 | NCI-H1651 | 1.23 | 0.986 | 0.797 | 0.729 | 0.556 | 0.553 | 0.541 | 0.703 | 0.646 | 0.626 | 0.67 | 0.657 | 0.587 | 0.549 | 0.629 | 0.191 | 0.179 | 0.168 | 0.177 | 0.924
9 | 201T | 1.05 | 1.02 | 1.05 | 0.347 | 0.322 | 0.279 | 0.331 | 0.831 | 0.817 | 0.828 | 0.875 | 1.03 | 0.899 | 0.943 | 1.12 | 0.822 | 0.882 | 0.859 | 0.765 | 1
10 | NCI-H322M | 0.734 | 0.867 | 0.884 | 0.64 | 0.582 | 0.557 | 0.501 | 0.628 | 0.683 | 0.767 | 0.696 | 0.97 | 0.874 | 0.783 | 0.791 | 0.938 | 0.793 | 0.743 | 0.768 | 0.805
11 | NCI-H838 | 0.965 | 0.981 | 0.989 | 0.238 | 0.255 | 0.239 | 0.22 | 0.446 | 0.458 | 0.431 | 0.525 | 0.757 | 0.675 | 0.65 | 0.733 | 0.871 | 0.711 | 0.543 | 0.556 | 0.749
12 | NCI-H460 | 0.507 | 0.567 | 0.184 | 0.0522 | 0.0522 | 0.0641 | 0.0646 | 0.449 | 0.468 | 0.438 | 0.555 | 1.02 | 0.725 | 0.654 | 0.862 | 0.449 | 0.415 | 0.325 | 0.619 | 0.44
13 | HOP-62 | 1.29 | 1.11 | 0.911 | 0.32 | 0.296 | 0.295 | 0.346 | 0.214 | 0.203 | 0.193 | 0.21 | 0.566 | 0.702 | 0.573 | 0.66 | 0.347 | 0.547 | 0.167 | 0.404 | 0.773
14 | SK-LU-1 | 0.932 | 0.677 | 0.377 | 1 | 0.863 | 0.857 | 0.549 | 0.567 | 0.585 | 0.537 | 0.451 | 0.742 | 0.749 | 0.728 | 0.598 | 0.449 | 0.398 | 0.35 | 0.372 | 0.638
15 | HCC-44 | 0.874 | 0.942 | 0.757 | 0.606 | 0.602 | 0.581 | 0.622 | 0.941 | 0.904 | 0.821 | 0.934 | 1.08 | 1.14 | 0.921 | 1.08 | 0.996 | 0.918 | 0.944 | 0.931 | 0.631
16 | LCLC-103H | 0.994 | 0.979 | 0.975 | 0.514 | 0.407 | 0.431 | 0.469 | 0.765 | 0.746 | 0.691 | 0.721 | 0.816 | 0.8 | 0.734 | 0.744 | 0.78 | 0.713 | 0.736 | 0.75 | 0.912
17 | NCI-H1915 | 1.09 | 0.973 | 1.04 | 0.468 | 0.471 | 0.454 | 0.448 | 0.261 | 0.253 | 0.257 | 0.257 | 0.49 | 0.508 | 0.383 | 0.482 | 0.264 | 0.253 | 0.222 | 0.231 | 0.898
18 | PC-3 [JPC-3] | 1.08 | 1.08 | 1.23 | 1.5 | 1.02 | 1.08 | 0.856 | 0.848 | 0.802 | 0.797 | 0.797 | 1.08 | 0.736 | 0.921 | 0.898 | 1.17 | 1.11 | 1.08 | 1.05 | 1.02
19 | SW 1573 | 0.869 | 0.59 | 0.774 | 0.948 | 0.791 | 0.706 | 0.638 | 0.616 | 0.381 | 0.46 | 0.263 | 0.786 | 0.761 | 0.633 | 0.337 | 0.543 | 0.449 | 0.441 | 0.106 | 0.711
20 | NCI-H1437 | 0.837 | 0.931 | 0.905 | 0.34 | 0.333 | 0.326 | 0.293 | 0.6 | 0.542 | 0.554 | 0.571 | 0.917 | 0.916 | 0.843 | 1.05 | 0.627 | 0.633 | 0.609 | 0.592 | 0.855
21 | NCI-H1734 | 0.677 | 0.706 | 0.661 | 0.438 | 0.4 | 0.353 | 0.352 | 0.528 | 0.506 | 0.49 | 0.524 | 0.842 | 0.805 | 0.718 | 0.59 | 0.61 | 0.588 | 0.563 | 0.63 | 0.635
22 | LK-2 | 1.05 | 0.6 | 0.564 | 0.283 | 0.198 | 0.197 | 0.183 | 0.307 | 0.278 | 0.201 | 0.187 | 0.292 | 0.273 | 0.213 | 0.227 | 0.626 | 0.613 | 0.388 | 0.489 | 0.445
23 | HCC-15 | 0.951 | 0.798 | 0.894 | 0.219 | 0.208 | 0.207 | 0.211 | 0.648 | 0.674 | 0.571 | 0.534 | 1.03 | 0.803 | 0.732 | 0.815 | 0.737 | 0.724 | 0.518 | 0.591 | 0.802
24 | HCC-366 | 0.417 | 0.436 | 0.423 | 0.139 | 0.166 | 0.116 | 0.149 | 0.396 | 0.293 | 0.269 | 0.341 | 0.363 | 0.285 | 0.191 | 0.41 | 0.312 | 0.325 | 0.311 | 0.416 | 0.167
25 | NCI-H661 | 0.817 | 0.802 | 0.814 | 1.03 | 0.861 | 0.955 | 0.884 | 0.673 | 0.519 | 0.576 | 0.673 | 0.826 | 0.796 | 0.809 | 0.883 | 0.845 | 0.75 | 0.708 | 0.71 | 0.674
26 | NCI-H2405 | 0.527 | 0.709 | 0.677 | 1.1 | 0.917 | 0.997 | 1.06 | 0.744 | 0.744 | 0.691 | 0.756 | 1.16 | 1 | 0.942 | 0.992 | 0.919 | 0.858 | 0.781 | 0.793 | 0.58
27 | LXF-289 | 1.03 | 1.03 | 1.14 | 0.932 | 0.986 | 0.897 | 0.917 | 0.391 | 0.389 | 0.438 | 0.421 | 0.759 | 0.829 | 0.663 | 0.757 | 1.08 | 1.06 | 1.06 | 1.11 | 1.01
